{"source": "patent US10925867B2", "about": "“Immunotherapeutic dosing regimens comprising pomalidomide and an anti-CS1 antibody for treating cancer” (Bristol-Myers Squibb Company, priority 2015, dated 2021)", "key": {"OPM2 xenograft": {"test_system": "OPM2 xenograft", "experiment": "Efficacy dose titration of pomalidomide in OPM2 xenograft", "type": "in vivo", "details": "for LCK (Log cell kill) / Median Days to Target Size / TGI (Tumor growth inhibition) / Weight Change % / CR (Complete regression) / PR (Partial regression): d14, 21; for CR (Complete regression) / PR (Partial regression): mice of 8; for effect on tumor growth (in words): pomalidomide 0.5, 5 and 50 mg/kg orally", "protocol": "FIG. 1. Antitumor Activity of pomalidomide treatment on OPM2 Multiple Myeloma Xenograft. Pomalidomide was administered at either 0.5 mg/kg, 5 mg/kg, or 50 mg/kg. […] Group one was left untreated (control, circles), group two treated with pomalidomide (50 mg/kg, triangles), group three treated with pomalidomide (5 mg/kg, squares), group four treated with pomalidomide (0.5 mg/kg, diamonds). All treatment sets were dosed daily for 5 days orally starting on d14 and then again for 5 days on d21. The data are presented as means+/−standard deviation. From this experiment the suboptimal 5 mg/kg dose was chosen as the dose to use in combination studies with elotuzumab and/or dexamethasone. […]\nTo assess the effect of pomalidomide treatment on the growth of the OPM2 xenograft, scid mice with established tumors were treated orally with pomalidomide at doses of 0.5 mg/kg, 5 mg/kg and 50 mg/kg. […] From this experiment the suboptimal 5 mg/kg dose was chosen as the dose to use in the combination studies (Study #1, OPM2-15 and Study #2, OPM2-16)."}, "[1]": {"test_system": "relapsed and refractory multiple myeloma", "details": "MM-002, cited from earlier work"}, "multiple myeloma [2]": {"test_system": "multiple myeloma", "details": "Ph II, patients administered pomalidomide; cited from earlier work"}, "multiple myeloma [3]": {"test_system": "multiple myeloma", "details": "cited from earlier work"}, "[4]": {"details": "10 and 20 mg/kg in combination with lenalidomide; cited from earlier work"}, "human myeloma xenografts": {"test_system": "human myeloma xenografts", "details": "intraperitoneally (IP), dose-dependent; cited from earlier work"}, "NK cells": {"test_system": "NK cells", "details": "independent of the Fc portion of the antibody; cited from earlier work"}, "[5]": {"experiment": "Infusion reactions in Study CA204004", "type": "in vivo, human", "from_the_text": "Elotuzumab can cause infusion reactions. Infusion reactions were reported in approximately 10% of patients treated with elotuzumab, lenalidomide and dexamethasone in Study CA204004 and in 7% of patients treated with elotuzumab, bortezomib and dexamethasone in Study CA204009. All reports of infusion reaction were ≤Grade 3. Grade 3 infusion reactions occurred in 1% of patients in Study CA204004 and in no patients in Study CA204009. The most common symptoms of an infusion reaction included fever, chills and hypertension. In Study CA204004, 5% of patients required interruption of the administration of elotuzumab due to infusion reaction for a median of 25 minutes and 1% of patients discontinued due to infusion reactions. In Study CA204009, 20% of patients required interruption of the administration of elotuzumab for a median of 40 minutes and none discontinued due to infusion reactions. Of the patients who experienced an infusion reaction, 70% (23/33) in Study CA204004 and 80% (4/5) in Study CA204009 had them during the first dose."}, "[6]": {"test_system": "primary multiple myeloma cells", "details": "in the presence of peripheral lymphocytes; cited from earlier work"}, "SLAMF7": {"molecular_target": "T1, SLAMF7 (Homo sapiens, UniProt Q9NQ25)", "T1 construct": "endogenous in cells; host or cells: bone marrow plasma (myeloma) cells from multiple myeloma subjects treated with elotuzumab plus lenalidomide/dexamethasone", "T1 sequence (Q9NQ25 23-335)": "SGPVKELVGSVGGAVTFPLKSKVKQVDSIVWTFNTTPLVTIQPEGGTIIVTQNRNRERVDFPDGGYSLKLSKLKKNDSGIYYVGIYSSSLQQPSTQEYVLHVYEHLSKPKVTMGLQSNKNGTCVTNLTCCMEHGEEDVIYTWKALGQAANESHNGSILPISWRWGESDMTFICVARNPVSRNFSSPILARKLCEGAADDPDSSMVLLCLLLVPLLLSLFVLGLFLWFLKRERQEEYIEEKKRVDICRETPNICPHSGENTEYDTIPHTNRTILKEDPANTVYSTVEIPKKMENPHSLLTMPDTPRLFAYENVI", "experiment": "Saturation of SLAMF7 on bone marrow plasma cells, Phase 2 study of elotuzumab and lenalidomide/dexamethasone", "type": "in vivo", "details": "doses ≥10 mg/kg", "protocol": "FIG. 7. Saturation of SLAMF7 Target on Bone Marrow Myeloma Samples from Subjects Treated in a Phase 2 Study of Elotuzumab and Lenalidomide/Dexamethasone (HuLuc63).\nFollowing elotuzumab dosing of 10 and 20 mg/kg in combination with lenalidomide, the observed steady-state Cmin values consistently remained above 70 μg/mL, the minimum efficacious trough concentrations (Lonial et. al., J Clin Oncol. 30(16):1953-1959. (2012)). […] Given the lack of difference in efficacy, safety, PK and SLAMF7 saturation between 10 and 20 mg/kg, the 10 mg/kg weekly for the first 2 cycles followed by 20 mg/kg monthly thereafter, was selected to improve patient convenience and compliance."}, "[7]": {"experiment": "Study CA204112, elotuzumab administration in <1 hour (5 ml/min)", "type": "in vivo, human", "details": "infusion rate escalated to 5 ml/min by the third dose; with lenalidomide/dexamethasone", "protocol": "Preliminary data are available for an ongoing study CA204112 with elotuzumab administration in <1 hour (5 ml/min) combined with lenalidomide/dexamethasone in newly diagnosed and relapsed/refractory myeloma. In this trial, the infusion rate was escalated to 5 ml/min by the third elotuzumab dose."}, "[8]": {"details": "pomalidomide 0.5 mg/kg PO QD × 5"}, "[9]": {"details": "pomalidomide 50 mg/kg PO QD × 5"}}, "note": "Read-outs that look alike come from different tables or passages of the source. Marks after values point to notes of the source that are not given here."}
{"compound": "Nc1cccc2c1C(=O)N(C1CCC(=O)NC1=O)C2=O", "note": "(racemic) [Pomalidomide, (RS)-4-amino-2-(2,6-dioxo-piperidin-3-yl)-isoindole-1,3-dione]", "values": [{"measurement": "LCK (Log cell kill)", "setting": "OPM2 xenograft; [8]", "value": "0.19^g"}, {"measurement": "Median Days to Target Size", "setting": "OPM2 xenograft; [8]", "value": 25, "unit": "days"}, {"measurement": "TGI (Tumor growth inhibition)", "setting": "OPM2 xenograft; [8]", "value": 45, "unit": "%"}, {"measurement": "Weight Change %", "setting": "OPM2 xenograft; [8]", "value": 9.3, "unit": "%"}, {"measurement": "CR (Complete regression)", "setting": "OPM2 xenograft; [8]", "value": "0/8"}, {"measurement": "PR (Partial regression)", "setting": "OPM2 xenograft; [8]", "value": "0/8"}, {"measurement": "LCK (Log cell kill)", "setting": "OPM2 xenograft; pomalidomide 5 mg/kg PO QD × 5", "value": "0.59^f"}, {"measurement": "Median Days to Target Size", "setting": "OPM2 xenograft; pomalidomide 5 mg/kg PO QD × 5", "value": 29, "unit": "days"}, {"measurement": "TGI (Tumor growth inhibition)", "setting": "OPM2 xenograft; pomalidomide 5 mg/kg PO QD × 5", "value": 63.1, "unit": "%"}, {"measurement": "Weight Change %", "setting": "OPM2 xenograft; pomalidomide 5 mg/kg PO QD × 5", "value": 3.2, "unit": "%"}, {"measurement": "CR (Complete regression)", "setting": "OPM2 xenograft; pomalidomide 5 mg/kg PO QD × 5", "value": "0/8"}, {"measurement": "PR (Partial regression)", "setting": "OPM2 xenograft; pomalidomide 5 mg/kg PO QD × 5", "value": "0/8"}, {"measurement": "LCK (Log cell kill)", "setting": "OPM2 xenograft; [9]", "value": "1.0^e"}, {"measurement": "Median Days to Target Size", "setting": "OPM2 xenograft; [9]", "value": 33, "unit": "days"}, {"measurement": "TGI (Tumor growth inhibition)", "setting": "OPM2 xenograft; [9]", "value": 87.1, "unit": "%"}, {"measurement": "Weight Change %", "setting": "OPM2 xenograft; [9]", "value": 4.7, "unit": "%"}, {"measurement": "CR (Complete regression)", "setting": "OPM2 xenograft; [9]", "value": "0/8"}, {"measurement": "PR (Partial regression)", "setting": "OPM2 xenograft; [9]", "value": "1/8"}, {"measurement": "effect on tumor growth (in words)", "setting": "OPM2 xenograft", "value": "suppressed tumor growth in a dose-dependent fashion"}, {"measurement": "effect on tumor growth (in words)", "setting": "OPM2 xenograft; listed as pomalidomide", "value": "inhibited tumor growth in a dose-dependent fashion"}, {"measurement": "Grade 3/4 anemia", "setting": "[1]", "value": 24, "unit": "%"}, {"measurement": "Grade 3/4 neutropenia", "setting": "[1]", "value": 48, "unit": "%"}, {"measurement": "Grade 3/4 thrombocytopenia", "setting": "[1]", "value": 22, "unit": "%"}, {"measurement": "ORR (≥PR)", "setting": "[1]", "value": 18, "unit": "%"}, {"measurement": "fatigue", "setting": "[1]", "value": 11, "unit": "%"}, {"measurement": "frequency of febrile neutropenia", "setting": "[1]", "value": 5, "unit": "%"}, {"measurement": "incidence of DVT", "setting": "[1]", "value": 3, "unit": "%"}, {"measurement": "median OS", "setting": "[1]", "value": 13.6, "unit": "months"}, {"measurement": "median response duration", "setting": "[1]", "value": 10.7, "unit": "months"}, {"measurement": "pneumonia", "setting": "[1]", "value": 15, "unit": "%"}, {"measurement": "median PFS", "setting": "[1]; pomalidomide 4 mg/day d1-21 of 28, dexamethasone 40 mg/week, median follow-up 14.2 months", "value": 2.7, "unit": "months"}, {"measurement": "median progression free survival", "setting": "multiple myeloma [2]", "value": 11.6, "unit": "months"}, {"measurement": "overall response rate", "setting": "multiple myeloma [2]", "value": 63, "unit": "%"}, {"measurement": "patients achieving VGPR or CR", "setting": "multiple myeloma [2]", "value": 33, "unit": "%"}, {"measurement": "ORR (≥PR)", "setting": "multiple myeloma [3]; 2 mg/day", "value": 29, "unit": "%"}, {"measurement": "median PFS", "setting": "multiple myeloma [3]; 2 mg/day", "value": 5.5, "unit": "months"}, {"measurement": "median duration of response", "setting": "multiple myeloma [3]; 2 mg/day", "value": 14.1, "unit": "months"}, {"measurement": "ORR (≥PR)", "setting": "multiple myeloma [3]; 4 mg/day", "value": 35, "unit": "%"}, {"measurement": "median PFS", "setting": "multiple myeloma [3]; 4 mg/day", "value": 6.9, "unit": "months"}, {"measurement": "median duration of response", "setting": "multiple myeloma [3]; 4 mg/day", "value": 14.5, "unit": "months"}]}
{"compound": "Elotuzumab: humanized monoclonal IgG1 antibody directed against CS-1; VL SEQ ID NO:1, VH SEQ ID NO:2", "values": [{"measurement": "steady-state Cmin", "setting": "[4]", "value": "above 70 μg/mL"}, {"measurement": "tumor growth", "setting": "human myeloma xenografts", "value": "inhibits tumor growth of human myeloma xenografts"}, {"measurement": "NK cell activation", "setting": "NK cells", "value": "activate NK cells by up-regulation of CD69 and granzyme B expression"}, {"measurement": "median duration of interruption", "setting": "[5]", "value": 25, "unit": "min"}, {"measurement": "patients discontinued due to infusion reactions", "setting": "[5]", "value": 1, "unit": "%"}, {"measurement": "patients requiring interruption of administration due to infusion reaction", "setting": "[5]", "value": 5, "unit": "%"}, {"measurement": "patients with Grade 3 infusion reactions", "setting": "[5]", "value": 1, "unit": "%"}, {"measurement": "patients with infusion reaction who had it during the first dose", "setting": "[5]", "value": 70, "unit": "%"}, {"measurement": "patients with infusion reactions", "setting": "[5]; with lenalidomide and dexamethasone", "value": "approximately 10%"}, {"measurement": "ADCC", "setting": "[6]", "value": "induces significant antibody-dependent cellular cytotoxicity (ADCC)"}, {"measurement": "saturation of SLAMF7 on bone marrow plasma cells", "setting": "SLAMF7", "value": "complete saturation"}, {"measurement": "frequency of infusion reactions", "setting": "[7]", "value": "no increased frequency of infusion reactions"}]}
